Counter-ions that a name gives are not always drawn.
Experiments:
[1] = target: T1, Cathepsin S (Homo sapiens, UniProt P25774); assay: Cathepsin S assay procedure (inhibition of recombinant enzyme, fluorogenic substrate Z-Val-Val-Arg-AMC); format: biochemical; details: pH5.5, fluorescence at 20 minutes; read-out: pIC50 (negative logarithm of the IC50 concentration) for inhibition of human cathepsin S (converted)
Experimental: EXAMPLE 32 Cathepsin S assay procedure
25µl of a 2mg/l solution of activated recombinant human cathepsin S, in assay buffer, is then added to the well, yielding a final inhibitor concentration of 10µM.
Enzyme activity is determined by measuring the fluorescence of the liberated aminomethylcoumarin at […] using 390nm excitation, at 20 minutes. Percentage enzyme activity is calculated by comparison of this activity to that of a solution containing no inhibitor. Compounds are subsequently subjected to a dose response curve analysis in order to determine IC50 values for active compounds (where IC50 is the concentration of test compound causing 50 % inhibition of the enzymatic activity). Compounds of the invention typically have a pIC50 (negative logarithm of the IC50 concentration) for inhibition of human cathepsin S of more than 6. Most compounds of the invention have a pIC50 of more than 7, such as exemplified by the compounds of examples 1a, 1b, 2a, 7d, 12a, 14a, 14b, 14c, 14d, 14e, 14f, 14g, 14h, 14i, 17, 18.

[2] = target: T1, Cathepsin S; assay: Cell based lip10 assay (Lip10 accumulation, anti-CD74 ELISA); design: endogenous in cells; host or cells: Jiyoye human B lymphoblastoid cells; details: Human B lymphoblastoid cells (Jiyoye), 24 hours, relative to E64d / LHVS-treated cells; read-out: pEC50 (negative logarithm of the EC50 concentration) (converted)
From the text: In some cases, these cell based activities are up to 100 fold greater than previously disclosed compounds in WO 2007/080191.
EXAMPLE 34 Cathepsin S assay
During normal antigen presentation, Lip10 is proteolytically degraded to enable loading of a peptide fragment and subsequent MHC-II presentation on the surface of antigen presenting cells. The cleavage process is mediated by Cathepsin S. Thus, the Lip10 assay is an in vitro measure of a compound's ability to block cathepsin S and by extension antigen presentation. A compound that causes the accumulation of Lip10 at low concentration would be expected to block presentation of antigens.
Cell based lip10 assay procedure
Human B lymphoblastoid cells (Jiyoye) were cultured in RPMI 1640 medium at a density of 500 000 cells/ml in 24-well plates. Cells were treated with a concentration range of compounds (0.001-10µM) and vehicle alone (DMSO, 0.1% v/v). In order to generate positive control treatments separate wells were treated with 10µM E64d & 0.1µM LHVS. The cells were incubated at 37°C in a humidified incubator containing 5% CO2. After 24 hours the plates were centrifuged at 150 x g for five minutes and the media removed. Cells were lysed by adding 65µl of ice-cold phosphate buffered saline (PBS) containing 1% (v/v) Triton X-100 and protease inhibitors and incubated on ice for 20 minutes. The samples were centrifuged at 18 000 x g for 15 minutes at 4°C and the resulting supernatants collected and stored at -80°C until required. After measurement of protein concentration using a micro-BCA protein assay all samples were diluted to 10µg protein/ml and 50µl of each sample were coated overnight at 4°C onto wells of high protein-binding 96-well plates. The wells were washed once with PBS (200µl/well) and then incubated at room temperature for 2 hours with 10µg/ml mouse anti-CD74 Pin.1 monoclonal antibody (50µl/well) in PBS containing 0.05% (v/v) Tween-20 (PBS-T) and 2% (w/v) BSA (PBS-T/BSA). Unbound antibody was then removed by washing three times with PBS-T and followed by the addition of rabbit anti-mouse IgG antibody conjugated to horseradish peroxidase. After washing five times with PBS-T 100µl of tetramethylbenzidine substrate was added to each well and incubated for 10 minutes on a plate shaker. The reaction was stopped by the addition of 100µl of 1 M hydrochloric acid. Antibody binding was quantified by measuring the optical density (OD, 450nm) using a Molecular Devices Spectramax Plus. The OD of vehicle-only treated cells was removed from all values and the data was expressed as a percentage of the OD generated from the mean E64d / LHVS-treated cells. The potency of compounds (EC50) was measured by calculating the concentration of inhibitor required to generate 50% inhibition relative to E64d / LHVS-treated cells.

T1 sequence (P25774 115-331): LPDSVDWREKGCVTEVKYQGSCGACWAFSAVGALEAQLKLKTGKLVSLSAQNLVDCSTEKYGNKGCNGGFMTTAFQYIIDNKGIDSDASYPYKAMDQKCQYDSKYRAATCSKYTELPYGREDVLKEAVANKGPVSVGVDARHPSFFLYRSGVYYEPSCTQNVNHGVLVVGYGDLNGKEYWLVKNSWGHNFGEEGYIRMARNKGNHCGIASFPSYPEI

| Structure (SMILES) | IC50 [1] [nM] | EC50 [2] [nM] |
| --- | --- | --- |
| CC(=O)N(C)CCCOc1ccc(-c2cc3c(ncn3C)c(C#N)n2)cc1C(F)(F)F [Example 2a, 6-{4-[3-(N-acetyl-N-methylamino)propoxy]-3-(trifluoromethyl)-phenyl}-1-methyl-1H-imidazo[4,5-c]pyridine-4-carbonitrile] | < 100 | – |
| Cn1cnc2c(C#N)nc(-c3ccc(OCCC4CCN(CC(F)F)CC4)c(C(F)(F)F)c3)cc21 [Example 14g, 6-(4-(2-(1-(2,2-difluoroethyl)piperidin-4-yl)ethoxy)-3-(trifluoromethyl)phenyl)-1-methyl-1H-imidazo[4,5-c]pyridine-4-carbonitrile] | < 100 | – |
| CC(=O)N(C)CCOc1ccc(-c2cc3c(ncn3C)c(C#N)n2)cc1C(F)(F)F [Example 7d, 1-methyl-6-(4-(2-(N-acetyl-N-methylamino)ethoxy)-3-(trifluoromethyl)phenyl)-1H-imidazo[4,5-c]pyridine-4-carbonitrile] | < 100 | – |
| Cn1cnc2c(C#N)nc(-c3ccc(OCCC4CCN(CCF)CC4)c(C(F)(F)F)c3)cc21 [Example 14f, 6-(4-(2-(1-(2-fluoroethyl)piperidin-4-yl)ethoxy)-3-(trifluoromethyl)phenyl)-1-methyl-1H-imidazo[4,5-c]pyridine-4-carbonitrile] | < 100 | – |
| Cn1cnc2c(C#N)nc(-c3ccc(OCCN4C=NC(C)(C)C4=O)c(C(F)(F)F)c3)cc21 [Example 18, 6-(4-(2-(4,4-dimethyl-5-oxo-4,5-dihydro-1H-imidazol-1-yl)ethoxy)-3-(trifluoromethyl)phenyl)-1-methyl-1H-imidazo[4,5-c]pyridine-4-carbonitrile TFA salt] | < 100 | – |
| CCNc1cc(COc2ccc(-c3cc4c(ncn4C)c(C#N)n3)cc2C(F)(F)F)ccn1 [Example 12b, 1-Methyl-6-{4-[(2-(N-ethylamino)-pyridin-4-yl)-methoxy]-3-(trifluoromethyl)-phenyl}-1H-imidazo[4,5-c]pyridine-4-carbonitrile] | – | < 100 |
| COCCN1CCC(CCOc2ccc(-c3cc4c(ncn4C)c(C#N)n3)cc2C(F)(F)F)CC1 [Example 14h, 6-(4-(2-(1-(2-methoxyethyl)piperidin-4-yl)ethoxy)-3-(trifluoromethyl)phenyl)-1-methyl-1H-imidazo[4,5-c]pyridine-4-carbonitrile] | < 100 | – |
| CN(C)C(=O)CN1CCC(CCOc2ccc(-c3cc4c(ncn4C)c(C#N)n3)cc2C(F)(F)F)CC1 [Example 14d, 6-(4-(2-(1-(2-dimethylamino-2-oxo-ethyl)piperidin-4-yl)ethoxy)-3-(trifluoromethyl)phenyl)-1-methyl-1H-imidazo[4,5-c]pyridine-4-carbonitrile] | < 100 | < 100 |
| CC(=O)NCCCOc1ccc(-c2cc3c(ncn3C)c(C#N)n2)cc1C(F)(F)F [Example 1b, 6-[4-(3-acetylaminopropoxy)-3-(trifluoromethyl)-phenyl]-1-methyl-1H-imidazo[4,5-c]pyridine-4-carbonitrile] | < 100 | – |
| Cc1noc(C)c1CN1CCC(CCOc2ccc(-c3cc4c(ncn4C)c(C#N)n3)cc2C(F)(F)F)CC1 [Example 14c, 6-(4-(2-(1-((3,5-dimethylisoxazol-4-yl)methyl)piperidin-4-yl)ethoxy)-3-(trifluoromethyl)phenyl)-1-methyl-1H-imidazo[4,5-c]pyridine-4-carbonitrile] | < 100 | < 100 |
| Cn1cnc2c(C#N)nc(-c3ccc(OCCC4CCN(Cc5ncco5)CC4)c(C(F)(F)F)c3)cc21 [Example 14a, 1-methyl-6-(4-(2-(1-(oxazol-2-ylmethyl)piperidin-4-yl)ethoxy)-3-(trifluoromethyl)phenyl)-1H-imidazo[4,5-c]pyridine-4-carbonitrile hydrochloride] | < 100 | < 100 |
| CNc1cc(COc2ccc(-c3cc4c(ncn4C)c(C#N)n3)cc2C(F)(F)F)ccn1 [Example 12c, 1-Methyl-6-{4-[(2-(N-methylamino)-pyridin-4-yl)-methoxy]-3-(trifluoromethyl)-phenyl}-1H-imidazo[4,5-c]pyridine-4-carbonitrile] | – | < 100 |
| CCN(C)c1cc(COc2ccc(-c3cc4c(ncn4C)c(C#N)n3)cc2C(F)(F)F)ccn1 [Example 12a, 1-Methyl-6-{4-[(2-(N-ethyl-N-methylamino)-pyridin-4-yl)-methoxy]-3-(trifluoromethyl)-phenyl}-1H-imidazo[4,5-c]pyridine-4-carbonitrile Hydrocloride] | < 100 | < 100 |
| Cc1cc(CN2CCC(CCOc3ccc(-c4cc5c(ncn5C)c(C#N)n4)cc3C(F)(F)F)CC2)no1 [Example 14b, 1-methyl-6-(4-(2-(1-((5-methylisoxazol-3-yl)methyl)piperidin-4-yl)ethoxy)-3-(trifluoromethyl)phenyl)-1H-imidazo[4,5-c]pyridine-4-carbonitrile] | < 100 | < 100 |
| Cn1cnc2c(C#N)nc(-c3ccc(OCCC4CCN(Cc5nccs5)CC4)c(C(F)(F)F)c3)cc21 [Example 14i, 1-methyl-6-(4-(2-(1-(thiazol-2-ylmethyl)piperidin-4-yl)ethoxy)-3-(trifluoromethyl)-phenyl)-1H-imidazo[4,5-c]pyridine-4-carbonitrile] | < 100 | – |
| Cn1cnc2c(C#N)nc(-c3ccc(OCCC4CCN(CC(=O)N5CCCC5)CC4)c(C(F)(F)F)c3)cc21 [Example 14e, 6-(4-(2-(1-(2-oxo-2-(pyrrolidin-1-yl)ethyl)piperidin-4-yl)ethoxy)-3-(trifluoromethyl)phenyl)-1-methyl-1H-imidazo[4,5-c]pyridine-4-carbonitrile] | < 100 | – |
| Cn1cnc2c(C#N)nc(-c3ccc(OCCCNS(C)(=O)=O)c(C(F)(F)F)c3)cc21 [Example 1a, N-(3-(4-(4-cyano-1-methyl-1H-imidazo[4,5-c]pyridin-6-yl)-2-(trifluoromethyl)phenoxy)propyl)methanesulfonamide] | < 100 | – |

Source: patent EP2387573B1, “6-PHENYL-1H-IMIDAZO[4,5-C]PYRIDINE-4-CARBONITRILE DERIVATIVES AS CATHEPSIN S AND/OR CATHEPSIN K INHIBITORS” (Organon BioSciences Nederland B.V., priority 2009, dated 2010)
